Calls of active or inactive are those of the source. The calls are words filed in the database; no cut-off is given here.
Experiments:
[1] = system: Mus musculus; experiment: Hepatoprotective activity against cadmium-induced oxidative damage in Swiss albino mouse assessed as inhibition of cadmium-induced GST activity depletion at 3 mg/kg, po administered for 20 days concomitantly with cadmium; type: functional, organism-based; set-up: dose 3 mg/kg
[2] = system: Mus musculus; experiment: Hepatoprotective activity against cadmium-induced hepatic damage in Swiss albino mouse assessed as ratio of liver weight to body weight at 3 mg/kg, po administered for 20 days concomitantly with cadmium; type: functional
[3] = system: Mus musculus; experiment: Hepatoprotective activity against cadmium-induced oxidative damage in Swiss albino mouse assessed as inhibition of cadmium-induced GST activity depletion at 3 mg/kg, po administered 7 days prior to first cadmium treatment followed by administration for 20 days concomitantly with cadmium; type: functional, organism-based; set-up: dose 3 mg/kg
[4] = system: Mus musculus; experiment: Hepatoprotective activity against cadmium-induced hepatic damage in Swiss albino mouse assessed as inhibition of cadmium-induced elevation in serum AST level at 3 mg/kg, po administered for 20 days concomitantly with cadmium; type: functional, organism-based; set-up: dose 3 mg/kg
[5] = system: Mus musculus; experiment: Hepatoprotective activity against cadmium-induced hepatic damage in Swiss albino mouse assessed as inhibition of cadmium-induced LPO level at 3 mg/kg, po administered for 20 days concomitantly with cadmium bt TBARS assay; type: functional, organism-based; set-up: dose 3 mg/kg
[6] = system: Mus musculus; experiment: Renoprotective activity against cadmium-induced renal damage in Swiss albino mouse assessed as inhibition of cadmium-induced creatinine level change at 3 mg/kg, po administered 7 days prior to first cadmium treatment followed by administration for 20 days concomitantly with cadmium; type: functional, organism-based; set-up: dose 3 mg/kg
[7] = system: Mus musculus; experiment: Hepatoprotective activity against cadmium-induced oxidative damage in Swiss albino mouse assessed as inhibition of cadmium-induced GSH depletion at 3 mg/kg, po administered for 20 days concomitantly with cadmium; type: functional, organism-based; set-up: dose 3 mg/kg
[8] = system: Mus musculus; experiment: Hepatoprotective activity against cadmium-induced oxidative damage in Swiss albino mouse assessed as inhibition of cadmium-induced CAT activity depletion at 3 mg/kg, po administered for 20 days concomitantly with cadmium; type: functional, organism-based; set-up: dose 3 mg/kg
[9] = system: Mus musculus; experiment: Hepatoprotective activity against cadmium-induced hepatic damage in Swiss albino mouse assessed as inhibition of cadmium-induced elevation in serum AST level at 3 mg/kg, po administered 7 days prior to first cadmium treatment followed by administration for 20 days concomitantly with cadmium; type: functional, organism-based; set-up: dose 3 mg/kg
[10] = system: Mus musculus; experiment: Renoprotective activity against cadmium-induced renal damage in Swiss albino mouse assessed as inhibition of cadmium-induced BUN level […] at 3 mg/kg, po administered 7 days prior to first cadmium treatment followed by administration for 20 days concomitantly with cadmium; type: functional, organism-based; set-up: dose 3 mg/kg
[11] = system: Mus musculus; experiment: Hepatoprotective activity against cadmium-induced hepatic damage in Swiss albino mouse assessed as inhibition of cadmium-induced LPO level at 3 mg/kg, po administered 7 days prior to first cadmium treatment followed by administration for 20 days concomitantly with cadmium; type: functional, organism-based; set-up: dose 3 mg/kg
[12] = system: Mus musculus; experiment: Renoprotective activity against cadmium-induced renal damage in Swiss albino mouse assessed as inhibition of cadmium-induced BUN level […] at 3 mg/kg, po administered for 20 days concomitantly with cadmium; type: functional, organism-based; set-up: dose 3 mg/kg
[13] = system: Mus musculus; experiment: Renoprotective activity against cadmium-induced renal damage in Swiss albino mouse assessed as inhibition of cadmium-induced creatinine level change at 3 mg/kg, po administered for 20 days concomitantly with cadmium; type: functional, organism-based; set-up: dose 3 mg/kg
[14] = system: Mus musculus; experiment: Hepatoprotective activity against cadmium-induced oxidative damage in Swiss albino mouse assessed as inhibition of cadmium-induced SOD activity depletion at 3 mg/kg, po administered 7 days prior to first cadmium treatment followed by administration for 20 days concomitantly with cadmium; type: functional, organism-based; set-up: dose 3 mg/kg
[15] = system: Mus musculus; experiment: Hepatoprotective activity against cadmium-induced oxidative damage in Swiss albino mouse assessed as inhibition of cadmium-induced SOD activity depletion at 3 mg/kg, po administered for 20 days concomitantly with cadmium; type: functional, organism-based; set-up: dose 3 mg/kg
[16] = system: Mus musculus; experiment: Hepatoprotective activity against cadmium-induced oxidative damage in Swiss albino mouse assessed as inhibition of cadmium-induced CAT activity depletion at 3 mg/kg, po administered 7 days prior to first cadmium treatment followed by administration for 20 days concomitantly with cadmium; type: functional, organism-based; set-up: dose 3 mg/kg
[17] = system: Mus musculus; experiment: Hepatoprotective activity against cadmium-induced hepatic damage in Swiss albino mouse assessed as inhibition of cadmium-induced elevation in serum ALT level at 3 mg/kg, po administered 7 days prior to first cadmium treatment followed by administration for 20 days concomitantly with cadmium; type: functional, organism-based; set-up: dose 3 mg/kg
[18] = system: Mus musculus; experiment: Hepatoprotective activity against cadmium-induced hepatic damage in Swiss albino mouse assessed as ratio of liver weight to body weight at 3 mg/kg, po administered 7 days prior to first cadmium treatment followed by administration for 20 days concomitantly with cadmium; type: functional
[19] = system: Mus musculus; experiment: Hepatoprotective activity against cadmium-induced oxidative damage in Swiss albino mouse assessed as inhibition of cadmium-induced GSH depletion at 3 mg/kg, po administered 7 days prior to first cadmium treatment followed by administration for 20 days concomitantly with cadmium; type: functional, organism-based; set-up: dose 3 mg/kg
[20] = system: Mus musculus; experiment: Hepatoprotective activity against cadmium-induced hepatic damage in Swiss albino mouse assessed as inhibition of cadmium-induced elevation in serum ALT level at 3 mg/kg, po administered for 20 days concomitantly with cadmium; type: functional, organism-based; set-up: dose 3 mg/kg
[21] = system: Mus musculus; experiment: Hepatoprotective activity against cadmium-induced hepatic damage in Swiss albino mouse assessed as inhibition of cadmium-induced liver necrosis and inflammation at 3 mg/kg, po administered for 20 days concomitantly with cadmium; type: functional, organism-based; set-up: dose 3 mg/kg
[22] = system: Mus musculus; experiment: Hepatoprotective activity against cadmium-induced hepatic damage in Swiss albino mouse assessed as inhibition of cadmium-induced liver necrosis and inflammation at 3 mg/kg, po administered 7 days prior to first cadmium treatment followed by administration for 20 days concomitantly with cadmium; type: functional, organism-based; set-up: dose 3 mg/kg

| Compound | inhibition [1] | Ratio [2] | inhibition [3] | inhibition [4] | inhibition [5] | inhibition [6] | inhibition [7] | inhibition [8] | inhibition [9] | inhibition [10] | inhibition [11] | inhibition [12] | inhibition [13] | inhibition [14] | inhibition [15] | inhibition [16] | inhibition [17] | Ratio [18] | inhibition [19] | inhibition [20] | further results |
| --- | --- | --- | --- | --- | --- | --- | --- | --- | --- | --- | --- | --- | --- | --- | --- | --- | --- | --- | --- | --- | --- |
| COc1ccc2c(c1)CCCC21CC(=O)N(CCCC[Se]C#N)C1=O (stereo not drawn) | Active | 0.0487 | Active | Active | Active | inactive | Active | Active | Active | Active | Active | Active | inactive | inactive | inactive | Active | Active | 0.0466 | Active | Active |  |
| COc1ccc2c(c1)CCCC21CC(=O)N(CCC[Se]C#N)C1=O (stereo not drawn) | Active | 0.0483 | Active | Active | Active | inactive |  |  | Active | Active | Active |  | inactive | inactive | inactive |  | inactive | 0.0474 |  | inactive |  |
| COc1ccc2c(c1)CCCC21CC(=O)N(CCCCC[Se]C#N)C1=O (stereo not drawn) | Active | 0.047 | Active | Active | Active | inactive | Active | Active | Active | Active | Active | Active | inactive | inactive | inactive | Active | Active | 0.0428 | Active | Active | inhibition [21]: Active; inhibition [22]: Active |
| COc1ccc2c(c1)CCCC21CC(=O)N(CC[Se]C#N)C1=O (stereo not drawn) | Active | 0.0525 | Active | Active | Active | inactive | inactive |  | Active | Active | Active |  | inactive | inactive | inactive |  | inactive |  | inactive | inactive |  |

Source: ChEMBL document CHEMBL1208668, “Synthesis and biological evaluation of novel spiro 6-methoxytetralin-1,3'-pyrrolidine based organoselenocyanates against cadmium-induced oxidative and hepatic damage in mice” (2010)
